Read-outs that look alike come from different tables or passages of the source.
Key:
protein sample [1] = assay: Protein stability screen: protein melting point temperature in MES/BTP buffer mixture; assay type: physicochemical
Text: In one embodiment, the present invention contemplates a method comprising a physiologic buffer mixture having a temperature-stable pKa to identify test compounds that increase stability of a sample protein by performing a protein melting point temperature screen. […] Although it is not necessary to understand the mechanism of an invention it is believed that a protein stability screen acts to define the bulk properties of a solution system (i.e. impact of pH, ionic strength, buffer etc.) and not just one specific component like most of the other screening conditions. The buffer system also acts as an internal control that simultaneously compares new and old conditions under identical conditions. Although commonly used previously, a urea stability test provides validation and verification of all testing parameters by comparative analysis with historical literature. DMSO screening allows for the nomination of conditions where protein compounds are usually insoluble (e.g., for example, drug binding studies) to identify the proper use of DMSO to solubilize these compounds without effecting the performance of the intended assay.
See, FIG. 1. […] See, FIG. 3. […] See, FIG. 4. […] See, FIG. 5. […] See, FIG. 6.
A metal ion screen was performed that compared the relative effects of five (5) different metal chloride ions, each at two different concentrations. See, FIG. 7. […] See, FIG. 8.
In one embodiment, the kit instructions comprise the following steps: • i) pre-chill the RT-PCR plate at 4° C. for 15-30 minutes prior to the addition of reagents and/or protein sample to each of the wells. • ii) The dye vial and kit plates should be stored at −20° C. and away from light until the time of use. • iii) Add 5 μl of dye to 500 μl of protein sample. The dye to protein ratio can be modified to any particular protein. For example, smaller proteins or proteins with a small hydrophobic core may require an increased dye concentration. • iv) Transfer 5 μl of each solution from the well plate to a corresponding well of the RT-PCR plate. • v) Add 5 μl of the protein/dye mixture to each well of the RT-PCR plate (>0.5 mg/ml). • vi) Mix the solutions by pipetting up and down (˜5 times). • a) gently placing all solutions at the bottom of the avoids subsequent plate centrifugation. • vii) Seal the RT-PCR plate. • viii) Immediately load the TR-PCR plate into the instrument and begin the programmed heating schedule (approximate timeframe=62 minutes), for example: • a) Heat to 20 C • b) Ramp to 90 C in 0.5 C increments. • c) Ramp to 4 C with a two minute schedule. • ix) Upload stored data file to a designated website (e.g., for example, caymanchem.com/deltatm) and follow the instructions.

Dwarf27 protein = molecular target: T1, Dwarf27 protein (Oryza sativa subsp. japonica, UniProt C7AU21); assay: Dwarf27 protein stability screen in MES-BTP buffer mixture (melting point temperature); assay type: physicochemical; details: for concentration for customized buffer system for Dwarf27: MES-BTP, Spyro Orange; for effect on protein Tm as compared to the control Tm: Dwarf27 (D27), concentration screen, FIG. 16
T1 sequence (C7AU21 41-278): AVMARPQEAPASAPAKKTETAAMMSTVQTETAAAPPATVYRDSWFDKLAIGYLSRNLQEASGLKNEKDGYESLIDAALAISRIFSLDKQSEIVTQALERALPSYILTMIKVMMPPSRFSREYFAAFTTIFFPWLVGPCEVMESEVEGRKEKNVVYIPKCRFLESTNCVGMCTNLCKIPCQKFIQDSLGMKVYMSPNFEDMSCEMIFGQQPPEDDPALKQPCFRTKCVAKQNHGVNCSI
Text: Many methods have been used to describe protein stability. A primary method of early literature was the urea degradation study. As a point of comparative reference to this early literature, the present invention maintains a concentration dependent measure of protein stability relative to urea concentration. […] See, FIG. 16A. […] See, FIG. 16B.
See, FIG. 17A. In one embodiment, the present invention contemplates a multi-component single buffer mixture characterized by: i) a low delta specific heat (CP); ii) low buffer-buffer interactions; iii) low divalent cation chelation; and iv) buffering capacity over a wide pH range. In one embodiment, the multi-component single buffer mixture comprises MES and BTP. See, FIG. 17B. […] The optimal pH for Dwarf27 protein was determined by other methods to be pH 7.5 (data not shown).
Data was collected using a Spyro Orange fluorophore.
The integrated analysis compared the differences in inflection points of these protein melting temperature point screens to identify Dwarf27 protein melting point profiles. See, FIG. 19.

protein sample [2] = assay: Cryoprotection protein melting point temperature screen; assay type: physicochemical
Protocol: For example, a protein melting point temperature screen was performed using sucrose at several different concentrations. […] See, FIG. 10. […] See, FIG. 11. […] See, FIG. 12.
Conversely, the present method can also identify compounds that might not be expected to provide quality cryoprotectant effects. For example, glycerol is widely accepted to provide cryoprotection. […] See, FIG. 13. […] This is opposite to what one would expect for an indicative parameter to identify a quality cryoprotectant. […] Although it is not necessary to understand the mechanism of an invention, it is believed that the use of such an improved cryoprotectant improves stability for nearly two years. […] See, FIG. 14.

[3] = system: Tryptophan hydroxylase (TH); details: cited from earlier work; for effect on TH melting temperature: buffer of 20 mM HEPES/NaOH and 100 mM (NH4)2SO4 (pH 7.0); for effect of buffer on TH stability: tested at same pH and salt concentration
[4] = Kipp et al., cited from earlier work; for ΔpH=pH(60° C.)−pH(25° C.): 0.1 M, initial pH=7 (25° C.), PHTEMP simulation
[5] = Hoefmeister Series screen, higher Tm
[6] = cryoprotection screen, dose response

O=P([O-])([O-])O.[Na+].[Na+] [sodium phosphate dibasic]
effect on protein stability (Tm) (protein sample [1]; [5]): improved the stability of the protein
concentration for customized buffer system for Dwarf27 (Dwarf27 protein): 50 mM

OC[C@H]1O[C@@](CO)(O[C@H]2O[C@H](CO)[C@@H](O)[C@H](O)[C@H]2O)[C@@H](O)[C@@H]1O [sucrose]
effect on protein melting point temperature (protein sample [2]; 25% sucrose and 30% sucrose): raised the melting point temperature
effect on TH melting temperature [3]: increased melting temperature

N#C[S-].[Na+] [sodium thiocynate]
effect on protein stability (Tm) (protein sample [1]; [5]): improved the stability of the protein

O=C([O-])C(O)C(O)C(=O)[O-].[Na+].[Na+] (stereo not drawn) [sodium tartrate dibasic]
effect on protein stability (Tm) (protein sample [1]; [5]): improved the stability of the protein

N.N.O=S(=O)(O)O [ammonium sulphate]
effect on protein Tm as compared to the control Tm (Dwarf27 protein): concentration-dependent increase in protein Tm

NC(N)=O [urea]
effect on protein (protein sample [1]; MES/BTP, urea concentrations in excess of 1.75 M, no melting point determinable): complete protein denaturation
effect on protein melting point temperature (protein sample [1]; MES/BTP, urea under 0.5 M or between 0.75-1.75 M): lower protein melting point temperatures
effect on protein Tm as compared to the control Tm (Dwarf27 protein): generalized decreases in protein Tm

C[S+](C)[O-] [DMSO, dimethyl sulfoxide]
effect on protein melting point temperature (protein sample [1]; buffer mixture of MES and BTP, concentration screen): consistently increased protein melting point temperatures
concentration for customized buffer system for Dwarf27 (Dwarf27 protein): 7%

O=[N+]([O-])[O-].[Na+] [sodium nitrate]
effect on protein stability (Tm) (protein sample [1]; [5]): improved the stability of the protein

[Cl-].[Li+] [lithium chloride]
effect on protein stability (Tm) (protein sample [1]; [5]): improved the stability of the protein

[F-].[Na+] [sodium fluoride]
effect on protein stability (Tm) (protein sample [1]; [5]): improved the stability of the protein

O=S(=O)(O)CCN1CCN(CCS(=O)(=O)O)CC1 [PIPES, piperazine-N,N′-bis(2-ethanesulfonic acid]
concentration for customized buffer system for Dwarf27 (Dwarf27 protein): 100 mM

Cl.N [ammonium chloride]
effect on protein stability (Tm) (protein sample [1]; [5]): improved the stability of the protein

CCN(CC)CC [triethylamine]
ΔpH=pH(60° C.)−pH(25° C.) [4]: approximately −0.8
ΔH zero (enthalpy of acid dissociation) [4]: 43.5 kJ/mol

O=S(=O)(O)O [sulfuric acid]
ΔpH=pH(60° C.)−pH(25° C.) [4]: approximately −0.4
ΔH zero 1 [4]: -50.2 kJ/mol
ΔH zero 2 [4]: -22.6 kJ/mol

O=S(=O)(O)CCN1CCN(CCO)CC1 [HEPES, 4-(2-hydroxyethyl)-1-piperazine ethanesulfonic acid]
effect of buffer on TH stability [3]: no significant effect on stability

OCC(O)CO [glycerol]
effect on protein melting point temperature (protein sample [1]; MES/BTP, glycerol concentrations above 10%): raised the protein melting temperature
effect on protein melting point temperature (protein sample [1]; MES/BTP, glycerol concentrations below 10%): lowered the protein melting point temperature
effect on protein melting point temperature (protein sample [2]; [6]): dose-dependent decrease in protein melting point temperature
concentration for customized buffer system for Dwarf27 (Dwarf27 protein): 2.5%
effect on TH melting temperature [3]: increased melting temperature

N[C@@H](CCC(=O)O)C(=O)O [glutamic acid]
concentration for customized buffer system for Dwarf27 (Dwarf27 protein): 25 mM

OCC(CO)(CO)NCCCNC(CO)(CO)CO [Bis Tris Propane]
effect of buffer on TH stability [3]: no significant effect on stability

OC[C@@H](O)[C@@H](O)[C@H](O)[C@@H](O)CO [sorbitol]
effect on TH melting temperature [3]: increased melting temperature

O.O.O.O.O.O.O.O.O.O.O=S(=O)([O-])[O-].[Na+].[Na+] [sodium sulphate decahydrate]
effect on protein stability (Tm) (protein sample [1]): improved the stability of the protein

O=S(=O)(O)CCCN1CCOCC1 [MOPS, 3-(N-morpholino)propanesulfonic acid]
effect of buffer on TH stability [3]: no significant effect on stability

OCCO [ethylene glycol]
effect on protein melting point temperature (protein sample [2]; [6]): dose-dependent decrease in protein melting point temperatures

OC[C@@H](O)[C@H](O)[C@@H](O)CO [xylitol]
effect on protein melting temperature in comparison to sucrose or trehalose (protein sample [2]; e.g. 30%): raised the protein melting temperature a full degree

CC(=O)O [acetic acid]
ΔpH=pH(60° C.)−pH(25° C.) [4]: approximately 0
ΔH zero (enthalpy of acid dissociation) [4]: -0.42 kJ/mol

OC[C@H]1O[C@H](O[C@H]2O[C@H](CO)[C@@H](O)[C@H](O)[C@H]2O)[C@H](O)[C@@H](O)[C@@H]1O [trehalose]
increase in protein melting temperature relative to sucrose (protein sample [2]; cryoprotection screen): more pronounced than sucrose

[I-].[Na+] [sodium iodide]
effect on protein stability (Tm) (protein sample [1]; [5]): improved the stability of the protein

O.O.[Ca+2].[Cl-].[Cl-] [calcium chloride dihydrate]
effect on protein stability (Tm) (protein sample [1]): improved the stability of the protein

CC(=O)[O-].O.O.O.[Na+] [sodium acetate trihydrate]
effect on protein stability (Tm) (protein sample [1]): improved the stability of the protein

[Cl][Co][Cl] [cobalt chloride]
concentration for customized buffer system for Dwarf27 (Dwarf27 protein): 0.005 to 0.025 mM

Cl.N=C(N)N [guanidinium hydrochloride]
effect on protein stability (Tm) (protein sample [1]; [5]): improved the stability of the protein

[Cl-].[K+] [potassium chloride]
effect on protein stability (Tm) (protein sample [1]; [5]): improved the stability of the protein

O=C([O-])CC(O)(CC(=O)[O-])C(=O)[O-].[Na+].[Na+].[Na+] [sodium citrate tribasic]
effect on protein stability (Tm) (protein sample [1]): improved the stability of the protein

Reference: patent US11001872B2, “Designing customized protein-specific buffer system” (priority 2015, dated 2021)
